Reference: PubChem BioAssay (NCI)
“And” between values parts separate entries of the source, which are not always exact repeats. Equal entries are not always repeated.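 In this assay, cells in 96-well plates receive the compound at five concentrations for 48 hours. Endpoints are linearly interpolated between the surrounding concentrations. Abbreviation: GI50, concentration required for 50% inhibition of growth. TGI denotes the concentration required for complete inhibition of growth.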

Columns and labels:
Test in all cases: inhibition of tumour cell growth, NCI panel, 48 h
[1] = system: SF-268 CNS
[2] = system: UACC-62 melanoma
[3] = system: LOX IMVI melanoma
[4] = system: HS 578T breast
[5] = system: OVCAR-8 ovarian
[6] = system: SN12C renal
[7] = system: EKVX NSCLC
[8] = system: OVCAR-5 ovarian
[9] = system: NCI-H23 lung
[10] = system: NCI-H460 lung
[11] = system: U251 CNS
[12] = system: IGROV1 ovarian
[13] = system: MCF7 breast
[14] = system: HCC-2998 colon
[15] = system: T-47D breast
[16] = system: SF-539 CNS
[17] = system: SK-OV-3 ovarian
[18] = system: MOLT-4 leukemia
[19] = system: COLO 205 colon
[20] = system: CCRF-CEM leukemia
[21] = system: OVCAR-3 ovarian
[22] = system: SF-295 CNS
[23] = system: UACC-257 melanoma
[24] = system: NCI-H226 lung
[25] = system: KM12 colon
[26] = system: A549 NSCLC
[27] = system: 786-0 renal
[28] = system: HT29 colon
[29] = system: UO-31 renal
[30] = system: RXF 393 renal
[31] = system: BT-549 breast
[32] = system: SW-620 colon
[33] = system: SNB-75 CNS
[34] = system: HL-60(TB) leukemia
[35] = system: MALME-3M melanoma
[36] = system: SK-MEL-28 melanoma
[37] = system: HOP-92 NSCLC
[38] = system: HCT-15 colon
[39] = system: OVCAR-4 ovarian
[40] = system: MDA-MB-435
[41] = system: DU-145 prostate
[42] = system: SK-MEL-5 melanoma
[43] = system: K-562 leukemia
[44] = system: MDA-MB-231 breast
[45] = system: RPMI-8226 leukemia
[46] = system: NCI-H522 lung
[47] = system: ACHN renal
[48] = system: A498 renal
[49] = system: SK-MEL-2 melanoma
[50] = system: M14 melanoma
[51] = system: TK-10 renal
[52] = system: SR leukemia
[53] = system: HOP-62 NSCLC
[54] = system: HCT-116 colon
[55] = system: CAKI-1 renal
[56] = system: NCI/ADR-RES ovarian
[57] = system: PC-3 prostate

For CSc1ccc2c(c1)N(CCC1CCCCN1C)c1ccccc1S2 (centres undefined), the GI50 [1] was 7.7 µM and 4.85 µM, the TGI [1] was 21.6 µM and 17.7 µM and the GI50 [2] was 3.16 µM and 3.05 µM. The TGI [2] was 13.6 µM and 7.13 µM, the GI50 [3] was 3.44 µM and 1.78 µM and the TGI [3] was 14.8 µM and 3.34 µM. For the same compound, the GI50 [4] was 6.89 µM and 3.01 µM, the TGI [4] was 28.1 µM and 13.2 µM and the GI50 [5] was 11.9 µM and 10.3 µM. The TGI [5] was 27.5 µM and 29.3 µM, the GI50 [6] was 4.81 µM and 6.05 µM and the TGI [6] was 18.8 µM and 19.3 µM. For the same compound, the GI50 [7] was 7.93 µM and 8.06 µM, the TGI [7] was 23.5 µM and 22.7 µM and the GI50 [8] was 10.1 µM and 3.83 µM. The TGI [8] was 22 µM and 13.2 µM, the GI50 [9] was 10.3 µM and 8.49 µM and the TGI [9] was 24 µM and 22.7 µM. The GI50 [10] was 4.52 µM and 2.03 µM, the TGI [10] was 17.9 µM and 4.28 µM and the GI50 [11] was 5.92 µM and 3.53 µM. For the same compound, the TGI [11] was 19.2 µM and 12.2 µM, the GI50 [12] was 5.89 µM and the TGI [12] was 20.1 µM. For the same compound, the GI50 [13] was 5.63 µM and 2.2 µM, the TGI [13] was 21.7 µM and 4.48 µM and the GI50 [14] was 3.12 µM and 4.54 µM. For the same compound, the TGI [14] was 11.5 µM and 14.1 µM, the GI50 [15] was 5.82 µM and 3.4 µM and the TGI [15] was 23.3 µM and 11.4 µM. The GI50 [16] was 14.1 µM and 5.63 µM, the TGI [16] was 28.2 µM and 18.2 µM and the GI50 [17] was 13 µM and 13.8 µM. For the same compound, the TGI [17] was 27.5 µM and 29 µM, the GI50 [18] was 3.61 µM and 3.13 µM and the TGI [18] was 13.6 µM and 10 µM. The GI50 [19] was 6.22 µM and 3.57 µM, the TGI [19] was 24 µM and 13.2 µM and the GI50 [20] was 5.45 µM and 2.26 µM. For the same compound, the TGI [20] was 21.1 µM and 27.4 µM, the GI50 [21] was 10.7 µM and 4.28 µM and the TGI [21] was 23.7 µM and 21.7 µM. For the same compound, the GI50 [22] was 8.64 µM and 2.86 µM, the TGI [22] was 22.6 µM and 8.7 µM and the GI50 [23] was 3.08 µM and 2.14 µM. For the same compound, the TGI [23] was 11.6 µM and 6.3 µM, the GI50 [24] was 11.2 µM and 11.4 µM and the TGI [24] was 28.5 µM and 30.3 µM. For the same compound, the GI50 [25] was 6.3 µM and 4.16 µM, the TGI [25] was 18.8 µM and 16.1 µM and the GI50 [26] was 10.9 µM and 2.65 µM. For the same compound, the TGI [26] was 24.1 µM and 10.3 µM, the GI50 [27] was 11.7 µM and 4.92 µM and the TGI [27] was 25.7 µM and 19.4 µM. The GI50 [28] was 4.08 µM and 2.54 µM, the TGI [28] was 15.1 µM and 7.9 µM and the GI50 [29] was 3.26 µM and 3.61 µM. For the same compound, the TGI [29] was 14.5 µM and 15.4 µM, the GI50 [30] was 3.2 µM and 1.56 µM and the TGI [30] was 15.4 µM and 5.23 µM. For the same compound, the GI50 [31] was 12.7 µM and 3.23 µM, the TGI [31] was 27.7 µM and 10.4 µM and the GI50 [32] was 10.8 µM and 2.52 µM. The TGI [32] was 24.6 µM and 7.23 µM, the GI50 [33] was 5.64 µM and 3.49 µM and the TGI [33] was 22.1 µM and 12.3 µM. For the same compound, the GI50 [34] was 13.4 µM and 3.12 µM, the TGI [34] was 30.3 µM and 9.22 µM and the GI50 [35] was 6.91 µM and 1.67 µM. For the same compound, the TGI [35] was 23.8 µM and 3.67 µM, the GI50 [36] was 4.08 µM and 1.86 µM and the TGI [36] was 14.3 µM and 3.63 µM. For the same compound, the GI50 [37] was 2.11 µM, the TGI [37] was 8.51 µM and the GI50 [38] was 5.11 µM and 4.01 µM. For the same compound, the TGI [38] was 17.5 µM and 14.6 µM, the GI50 [39] was 7.99 µM and 5.22 µM and the TGI [39] was 20.3 µM and 16.9 µM. For the same compound, the GI50 [40] was 3.48 µM and 3.1 µM, the TGI [40] was 13.6 µM and 11.1 µM and the GI50 [41] was 6.06 µM and 4.15 µM. For the same compound, the TGI [41] was 17.9 µM and 14.2 µM, the GI50 [42] was 1.86 µM and 1.64 µM and the TGI [42] was 3.89 µM and 3.02 µM. For the same compound, the GI50 [43] was 2.13 µM, the TGI [43] was 4.4 µM and the GI50 [44] was 2.08 µM and 2.4 µM. For the same compound, the TGI [44] was 5.99 µM and 6.11 µM, the GI50 [45] was 8.8 µM and 2.23 µM and the TGI [45] was 27.1 µM and 6.05 µM. For the same compound, the GI50 [46] was 6.29 µM, the TGI [46] was 21.8 µM and the GI50 [47] was 4.39 µM and 3.75 µM. The TGI [47] was 15.2 µM and 13.5 µM, the GI50 [48] was 4.99 µM and 13.2 µM and the TGI [48] was 22.2 µM and 28.7 µM. For the same compound, the GI50 [49] was 10.7 µM, the TGI [49] was 25.8 µM and the GI50 [50] was 2.17 µM and 1.85 µM. The TGI [50] was 4.89 µM and 3.76 µM, the GI50 [51] was 13.8 µM and 4.11 µM and the TGI [51] was 28.5 µM and 13.4 µM. For the same compound, the GI50 [52] was 4.45 µM and 3.41 µM, the TGI [52] was 17.2 µM and 12.4 µM and the GI50 [53] was 9.08 µM and 9.59 µM. For the same compound, the TGI [53] was 24 µM and 25.9 µM, the GI50 [54] was 5.58 µM and 3.3 µM and the TGI [54] was 19 µM and 12.9 µM. The GI50 [55] was 3.23 µM and 4.91 µM, the TGI [55] was 13 µM and 18.3 µM and the GI50 [56] was 10.4 µM and 4.76 µM. For the same compound, the TGI [56] was 24.1 µM and 18.5 µM, the GI50 [57] was 4.27 µM and 3.63 µM and the TGI [57] was 16.6 µM and 13.8 µM.
